From publication PMC7136958, “Targeting the pregnane X receptor using microbial metabolite mimicry” (EMBO Molecular Medicine, 2020)
Values joined by “and” are separate entries in the source; they are usually repeats but may differ in a detail not shown here. Equal entries are not always repeated. Where two headings read alike, the source gives them in different places.

What was measured:
NF-κB = NF-κB nuclear translocation (immunofluorescence) in Caco-2 cells; format: cell-based, human; conditions: 25 μM, with cytokines, 2 or 12 h
Experimental: HIOs and Caco‐2 were exposed to a pro‐inflammatory cytokine cocktail (10 ng/ml IFN‐γ, 10 ng/ml TNF‐α, 50 ng/ml IL‐1β) for 2–24 h in combination with DMSO or FKK5 and FKK6 compounds (10 and 25 μm). Relative mRNA levels of IL‐8 and IL‐6 were determined using quantitative real‐time PCR, with normalization to GAPDH. RNA was isolated using an RNeasy Mini Kit (Qiagen) as per the manufacturer's instructions. On column DNase (Qiagen) was used to remove any contaminating DNA. Next, cDNA was formed using iScript cDNA Synthesis Kit (Bio‐Rad) and 100 ng RNA. qRT–PCR was performed with SsoAdvanced Universal SYBR Green Kit (Bio‐Rad). The following primers were used: IL‐8 Forward: […]; IL‐8 Reverse: […]; IL‐6 Forward: […]; IL‐6 Reverse: […]; GAPDH Forward: […]; GAPDH Reverse: […]. For immunofluorescent staining of NF‐ĸB translocation to the cell nucleus, HIOs and Caco‐2 cell monolayers were fixed in 4% formaldehyde (in 1 × PBS) overnight at 4°C. The formaldehyde was removed by washing with 1 × PBS, and an antigen retrieval step was performed by incubating in 10 mM sodium citrate buffer in a vegetable steamer for 20 min. The samples were then blocked with normal donkey serum (10% in PBS with 0.3% Triton X‐100) for 1 h. […]

[1] = tested on: PXR occupancy of CYP3A4 and MDR1 promoter; assay: Chromatin immunoprecipitation (ChIP) in PXR-transfected LS174T cells; conditions: 10 μM
Experimental: LS174T cells were transfected with pSG5‐PXR (2 μg/plate/1 × 10^7 cells). […] Briefly, cells were chemically cross‐linked with formaldehyde in culture media for 15 min at room temperature. […] Cells were rinsed twice with cold PBS (phosphate‐buffered saline) (pH 7.5) and scraped in PBS supplemented with PIC (protease inhibitor cocktail).
Cell pellets were collected and immediately resuspended in immunoprecipitation (IP) buffer (150 mM NaCl (sodium chloride), 50 mM Tris–HCl at pH 7.5, 5 mM EDTA (ethylenediaminetetraacetic acid), 0.5% NP‐40, 1% Triton X‐100). The nuclei were centrifuged at 12,000 × g for 1 min and resuspended in fresh IP buffer. Chromatin was sheared by sonication to an average size of 0.2‐0.9 kb. Lysates were cleared by centrifugation at 12,000 × g for 10 min. […] 10% (wt/vol) Chelex 100 was added to the beads followed by boiling of the suspension and centrifugation at 12,000 × g for 1 min to obtain chromatin.
Purified chromatin DNA was used to perform RT–qPCR. […] Data were analyzed using SDS 2.2.1 program (ABI Biotechnology).

[2] = tested on: CYP1A1, CYP3A4, MDR1 mRNA in HepaRG cells
Experimental: Caco‐2 cells were purchased from ATCC, and authenticity was validated by multiplexed STR DNA (short tandem repeat deoxyribonucleic acid) profiling performed by Genetica. […] Cells were maintained at 37°C and 5% CO2 in a humidified incubator. […] Three HepaRG™‐derived cell lines, including 5F Clone control cells, and cells with targeted functional PXR and AhR gene knockouts, PXR‐KO and AhR‐KO, respectively, were purchased from Sigma (Czech Republic). Cells were handled according to the manufacturer's protocol. Human hepatocytes were purchased from Biopredic International (France) and Triangle Research Labs, LLC, Lonza (USA). Cultures were maintained in serum‐free medium at 37°C and 5% CO2 in a humidified incubator.
The measurements were performed in triplicate.

IL-8 mRNA = assay: TNF-α-induced IL-8 mRNA in human colonic enteroids (Calgary Protocol); format: cell-based; conditions: 10 μM, pair-wise vs DMSO
Experimental: Samples were immediately processed to yield isolated colonic crypts as previously described (Fernando et al, 2017). Isolated colonic crypts were embedded in Matrigel® (Corning) and cultured in Intesticult^tm Organoid Growth Media. Human organoids were pretreated for 6 h with either FKK5, FKK6, FKK9, or vehicle (DMSO), then stimulated with human recombinant TNF‐alpha in the presence of either treatment for an additional 12 h. Organoids were washed in PBS, disrupted in Tri Reagent® (Sigma, Oakville, ON, CAN), and frozen at −80°C. After thawing, chloroform was added, samples were centrifuged for 15 min, and the resulting aqueous phase was then added to equal volumes of 70% ethanol and further processed using the RNeasy mini kit (Qiagen). cDNA was synthesized using the QuantiTect RT kit (Qiagen) according to the manufacturer's protocol. Resulting cDNA was used as a template for quantitative real‐time PCR using Perfecta SYBR Green FastMix with ROX (QuantaBio). PCR and analysis were performed using a StepOne PCR System (Applied Biosystems). Gene expression was calculated relative to β‐actin expression and expressed as fold change of control. The primers used were as follows: Human®‐Actin (NM_001101), Human CYP3A4 (NM_001202855), and Human ABCB1 (NM_000927).

[3] = molecular target: T1, Human constitutive androstane receptor (hCAR) (Homo sapiens, UniProt Q14994); assay: hCAR reporter activity in HEK293T cells; format: cell-based
T1 construct: expressed in transfected cells; host or cells: HEK293T
T1 sequence (Q14994 whole entry): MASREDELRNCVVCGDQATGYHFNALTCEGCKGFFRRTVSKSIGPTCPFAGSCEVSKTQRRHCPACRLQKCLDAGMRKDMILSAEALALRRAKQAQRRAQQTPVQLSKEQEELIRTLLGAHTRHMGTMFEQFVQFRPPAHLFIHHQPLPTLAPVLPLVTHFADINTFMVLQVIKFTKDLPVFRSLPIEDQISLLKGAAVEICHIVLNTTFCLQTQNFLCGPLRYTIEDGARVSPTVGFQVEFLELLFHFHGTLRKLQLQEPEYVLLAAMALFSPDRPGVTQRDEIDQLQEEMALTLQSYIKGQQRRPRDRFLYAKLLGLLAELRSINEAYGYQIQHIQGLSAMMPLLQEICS
Experimental: Reverse transfection assays were performed in Caco‐2 cells as previously published with the following modifications (Kublbeck et al, 2015). 3.0 × 10^4 cells per well were transfected using pSG5‐PXR plasmid (300 ng/well), β‐Gal expression plasmid (600 ng/well), and CYP3A4‐luciferase reporter (500 ng/well) (Huang et al, 2007). After 24‐h transfection using Lipofectamine® LTX ([…] of plasmid), cells were exposed to FKK5 for 24 h. Cell lysates were prepared for β‐Gal and luciferase assays as previously published (Huang et al, 2007). The data are expressed as mean ± SD RLU (relative light units from luciferase assay) normalized to β‐Gal activity in the same well. Differences were tested using 2‐way ANOVA with Tukey's multiple comparison test, and P < 0.05 was considered significant (*). Standard transient transfection assays (PXR, CAR) in HEK293T cells were performed as previously published (Huang et al, 2007).

SMILES	NF-κB localisation (NF-κB)	PXR occupancy of proximal CYP3A4 and MDR1 promoter (semi-quantitative ChIP) [1]	CYP1A1 mRNA induction [2]	MDR-1 mRNA fold to C ([2]; HepaRG AHR-KO, normalised to GAPDH, fold vs UT) [fold]	CYP1A1 (1A1) mRNA, fold to C ([2]; human, 24 h) [fold]	CYP3A4 (3A4) mRNA, fold to C ([2]; human, 24 h) [fold]	CYP3A4 mRNA induction ([2]; human, 24 h)	MDR1 mRNA fold to C ([2]; human, 24 h) [fold]	MDR-1 mRNA, fold to C ([2]; human, 24 h) [fold]	TNF-α-induced IL-8 mRNA levels (IL-8 mRNA)	CAR activity induction [3]	MDR1 Fold Expression (2-ΔΔCt) ([1]; relative to DMSO = 1, each column a repeat experiment (Fig 1d))	CYP3A4 mRNA induction [2]	MDR-1 mRNA fold to C ([2]; human, 24 h) [fold]
C#CCC(O)(c1ccncc1)c1cc2ccccc2n1S(=O)(=O)c1ccccc1 (stereo not shown) [FKK6]	increased cytoplasmic	augmented PXR occupancy	did not induce	1.31	8.33	2.91	only in HepaRG™ control 5F clone	1.04	0.98	did not reach statistical significance	did not induce	–	–	–
O=C(c1ccncc1)c1cc2ccccc2n1S(=O)(=O)c1ccccc1 [FKK5, (1-(phenylsulfonyl)-1H-indol-2-yl)(pyridin-4-yl)methanone]	increased cytoplasmic	–	did not induce	–	0.81	1.92	–	1.03	0.96	significantly lowered	did not induce	3.894 and 3.803 and 2.576 and 4.071	HepaRG™ AhR‐KO cells	1.25
